Data from patent US20060281763A1, “Carboxamide inhibitors of TGFbeta” (priority 2005, published 2006).

biological target: T1, TGFβ R1 (Homo sapiens, UniProt P36897); test: TGFβ R1 autophosphorylation protocol (33P-ATP, phosphocellulose filter plate); format: biochemical; details: 10 uM ATP, 170 nM TGFβ R1, 20 minutes at room temperature, read-out: IC50 for Kinase Inhibition
T1 sequence (P36897 34-503): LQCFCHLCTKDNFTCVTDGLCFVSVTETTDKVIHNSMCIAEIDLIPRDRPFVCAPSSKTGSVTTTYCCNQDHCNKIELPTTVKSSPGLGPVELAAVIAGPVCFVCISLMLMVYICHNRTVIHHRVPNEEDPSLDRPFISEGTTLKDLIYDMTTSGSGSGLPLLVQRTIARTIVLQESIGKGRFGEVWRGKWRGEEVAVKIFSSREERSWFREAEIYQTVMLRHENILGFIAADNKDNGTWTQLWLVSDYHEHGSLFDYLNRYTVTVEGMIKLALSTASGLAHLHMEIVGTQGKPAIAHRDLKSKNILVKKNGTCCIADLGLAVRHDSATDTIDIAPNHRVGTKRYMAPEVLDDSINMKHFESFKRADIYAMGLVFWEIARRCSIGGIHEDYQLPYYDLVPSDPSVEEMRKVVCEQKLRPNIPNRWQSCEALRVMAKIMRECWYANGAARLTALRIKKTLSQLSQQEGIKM
Protocol: The compounds of the invention were tested for their ability to inhibit TGFβ by a TGFβ R^1 autophosphorylation protocol. This was conducted as follows: Compound dilutions and reagents were prepared fresh daily. Compounds were diluted from DMSO stock solutions to 2 times the desired assay concentration, keeping final DMSO concentration in the assay less than or equal to 1%. TGFβ R1 was diluted to 4 times the desired assay concentration in buffer+DTT. ATP was diluted into 4× reaction buffer, and gamma-^33P-ATP was added at 60 uCi/mL.
The assay was performed by adding 10 ul of the enzyme to 20 ul of the compound solution. The reaction was initiated by the addition of 10 ul of ATP mix. Final assay conditions included 10 uM ATP, 170 nM TGFβ R1, and […] in 20 mM MOPS, pH7. The reactions were incubated at room temperature for 20 minutes. The reactions were stopped by transferring 23 ul of reaction mixture onto a phosphocellulose 96-well filter plate, which had been pre-wetted with 15 ul of 0.25M H3PO4 per well. After 5 minutes, the wells were washed 4× with 75 mM H3PO4 and once with 95% ethanol. The plate was dried, scintillation cocktail was added to each well, and the wells were counted in a Packard TopCount microplate scintillation counter.

In order of falling IC50:
1. COc1cnc(-c2cc(Cl)ccc2F)nc1Nc1ccncc1C(=O)N1CCN(CCO)CC1 [Compound 116, {4-[2-(5-Chloro-2-fluoro-phenyl)5-methoxy-pyrimidin-4-ylamino]pyridin-3-yl}-[4-(2-hydroxy-ethyl)-piperazin-1-yl]-methanone]  7370 nM
2. COc1cnc(-c2cc(Cl)ccc2F)nc1Nc1ccncc1C(=O)NCC1CN(Cc2ccccc2)CCO1 (centres unmarked) [Compound 30, N-(4-Benzyl-morpholin-2-ylmethyl)-4-[2-(5-chloro-2-fluoro-phenyl)-5-methoxy-pyrimidin-4-ylamino)-nicotinamide]  2370 nM
3. COc1cnc(-c2cc(Cl)ccc2F)nc1Nc1ccncc1C(=O)NCCCNC(=O)NC1CCCCC1 [Compound 64, 4-[2-(5-Chloro-2-fluoro-phenyl)-5-methoxy-pyrimidin-4-ylamino]-N-[3-(3-cyclohexyl-ureido)-propyl]-nicotinamide]  890 nM
4. COc1cnc(-c2cc(Cl)ccc2F)nc1Nc1ccncc1C(=O)NCCCNC(=O)COC1O[C@H](CO)[C@@H](O)[C@H](O)[C@H]1O (stereo in doubt) [Compound 135, 4-[2-(5-Chloro-2-fluoro-phenyl)-5-methoxy-pyrimidin-4-ylamino]-N-{3[2-(3,4,5-trihydroxy-6-hydroxymethyl-tetrahydro-pyran-2-yloxy)-acetylamino]-propyl)-nicotinamide]  60 nM
5. COC[C@H]1OC(CCNCCCNC(=O)c2cnccc2Nc2nc(-c3cc(Cl)ccc3F)ncc2OC)[C@H](OC)[C@@H](OC)[C@H]1OC (some centres unmarked) [Compound 126]  50 nM
6. COC[C@@H]1OC(CCNCCCNC(=O)c2cnccc2Nc2nc(-c3cc(Cl)ccc3F)ncc2OC)[C@@H](OC)[C@H](OC)[C@H]1OC (some centres unmarked) [Compound 125, 4-[2-(5-Chloro-2-fluoro-phenyl)-5-methoxy-pyrimidin-4-ylamino]-N-{3-[2-(3,4,5-trimethoxy-6-methoxymethyl-tetrahydro-pyran-2-yl)-ethylamino]-propyl}-nicotinamide]  32 nM
7. COc1cnc(-c2cc(Cl)ccc2F)nc1Nc1ccncc1C(=O)NCCNCCOC1O[C@H](COC(C)=O)[C@H](OC(C)=O)[C@H](OC(C)=O)[C@H]1OC(C)=O (some centres unmarked) [Compound 157, Acetic acid 3,4,5-triacetoxy-6-{2-[2-[{4-[2-(5-chloro-2-fluoro-phenyl)-5-methoxy-pyrimidin-4-ylamino]-pyridine-3-carbonyl}amino)-ethylamino]-ethoxy}-tetrahydro-pyran-2-ylmethyl-ester]  25 nM
8. COc1cnc(-c2cc(Cl)ccc2F)nc1Nc1ccncc1C(=O)N[C@@H]1CCNC1 [Compound 138, 4-[2-(5-Chloro-2-fluoro-phenyl)-5-methoxy-pyrimidin-4-ylamino]-N-pyrrolidin-3-yl-nicotinamide]  24 nM

same assay, conditions: 10 uM ATP, 170 nM TGFβ R1, room temperature 20 minutes, read-out: IC50 for Kinase Inhibition

In order of rising IC50:
1. COc1cnc(-c2cc(Cl)ccc2F)nc1Nc1ccncc1C(=O)NCCNCC[C@@H]1O[C@H](CO)[C@@H](O)[C@H]1O [Compound 176, 4-[2-(5-Chloro-2-fluoro-phenyl)-5-methoxy-pyrimidin-4-ylamino]-N-{2-[2-(3,4-dihydroxy-5-hydroxymethyl-tetrahydro-furan-2-yl)-ethylamino]-ethyl}-nicotinamide]  5 nM
2. COc1cnc(-c2cc(Cl)ccc2F)nc1Nc1ccncc1C(=O)NC1CC1CO (centres unmarked) [Compound 160, 4-[2-(5-Chloro-2-fluoro-phenyl)-5-methoxy-pyrimidin-4-ylamino]-N-(2-hydroxymethyl-cyclopropyl)-nicotinamide]  9 nM
3. COc1cnc(-c2cc(Cl)ccc2F)nc1Nc1ccncc1C(=O)N1CC[C@@H](N)C1 [Compound 174, (3-Amino-pyrrolidin-1-yl)-{4-[2-(5-chloro-2-fluoro-phenyl)-5-methoxy-pyrimidin-4-ylamino]-pyridin-3-yl}-methanone]  1160 nM
